Test results taken from patent US6779468B1, “Method and pharmaceutical composition for iron delivery in hemodialysis and peritoneal dialysis patients” (priority 1997, dated 2004).
Where “and” joins values, the source holds several entries; their conditions need not be identical. Identical values can stand only once. Entries after “also recorded” stand apart in the source; their conditions may differ.

How the values were obtained:
[1] = Phase I/II clinical study of dialysate iron in maintenance hemodialysis patients; format: in vivo, human; details: for reticulocyte hemoglobin (Retic-Hgb): month 2
Description: All subjects in the study were receiving maintenance hemodialysis for end stage kidney failure, and requiring erythropoietin and intravenous iron to maintain hemoglobin in the 10-12 gm/dl range. After obtaining an informed consent, patients were enrolled and oral iron was discontinued. All patients received maintenance intravenous iron (50-100 mg every 1-2 weeks) during a 4 week long pre-treatment phase. The last two weeks of this pre-treatment period were used to establish the “Baseline” serum iron and hematological parameters. In the Treatment Phase, ten patients were dialyzed with iron containing dialysate (Dialysate-Fe group) for a period of 4 months. […] Eleven control patients (IV-Fe Group) continued to receive 50-200 mg iron intravenously every 1-2 weeks, for the entire study period of 6.5 months.
The initial doses were 50 mg elemental iron weekly.
Increased availability of iron to marrow cells may improve responsiveness to erythropoietin, thereby raising the hemoglobin and hematocrit. Hemoglobin and hematocrit were monitored every week, and in the event of improved erythropoiesis, the doses of erythropoietin were reduced by 10% every two weeks or as needed, to maintain a stable hemoglobin.
According to the National Kidney Foundation-Dialysis Outcomes Quality Initiative (NKF-DOQI) recommendations, most hemodialysis patients should be administered intravenous iron with every dialysis session or every 1-2 weeks (maintenance therapy). […] This was the basis why the control group was maintained on regular doses of intravenous iron, while oral iron was discontinued. This being the standard of care, the subjects on maintenance intravenous iron (IV-Fe Group) served as the control against the experimental group receiving dialysate iron therapy (Dialysate-Fe Group).
A random number generator was used to generate a list of 24 numbers. Odd and even numbers were assigned A or B designation respectively. A list of 23 patients was created based on the order in which consent was obtained for participation in the study. Patients were assigned to groups A or B based on their order in the list.
When a relative iron deficiency was suspected bolus doses of 100-200 mg iron were administered intravenously with each dialysis, over 1-5 consecutive dialysis sessions.
Based on the NKF-DOQI guidelines, patients in IV-Fe group were prescribed maintenance amount of intravenous iron from 25 to 100 mg/week. When a relative iron deficiency was suspected, bolus doses of 100-200 mg iron were administered intravenously with each dialysis, over 5-10 consecutive dialysis sessions.
Except for plotting of individual patient variables over time, the iron study data has been summarized prior to analysis. Descriptive analysis was performed. Most of the analysis presented here, uses the data averaged over four or six/seven week intervals. A four week interval corresponds to the length of time each dose level was used during the dose escalation phase of the study. […] (See Figures 4-21)
The baseline period, labeled month 0, included data for the four weeks immediately prior to the start of the intervention. (There was some data available for some or all the fifth week prior to the intervention, but data from this week is omitted from the formal data analysis.)
Weeks 1 to 4, when the dialysate dose of 2 μg/dl was employed, are labeled month 1, weeks 5 to 8 labeled month 2, weeks 9 to 12 labeled ‘month 3’, weeks 13 to 16 labeled month 4, weeks 17 to 20 labeled month 5, and weeks 21 to 26 (or 27) are labeled month 6.

[2] = literature reports; cited from earlier work
[3] = baseline, before treatment phase

Row | Compound | TIBC adjusted for the baseline values, versus IV-Fe group ([1]; at 6 months, p<0.05) | serum ferritin (mean±S.D.) [1, 3] | total iron binding capacity (TIBC, mean±S.D.) [1, 3] | hematocrit cycling ([1]; dialysate route during every dialysis session) | reticulocyte hemoglobin (Retic-Hgb) [1] | average weekly dose of intravenous iron ([1]; month 6) | patients requiring additional intravenous iron supplements ([1]; month 6) | serum ferritin (mean±S.D.) ([1]; month 6) | maintenance of hemoglobin ([1]; over a period of 6 months) | patients in whom iron balance is maintained without supplemental oral or intravenous iron ([1]; over a period of 6 months) | reduction of requirements for intravenous iron ([1]; over a period of 6 months) | average weekly dose of intravenous iron ([1]; pretreatment period (month 0, baseline), all patients on maintenance intravenous iron) | requirement for intravenous iron ([1]; p≦0.002 with 8-12 μg/dl dialysate iron) | serum Fe and transferrin saturation (at 30 minutes of peritoneal dialysis, dialysate iron 500 μg/dl, day 21, P<0.03) | time for mean serum iron and transferrin saturation to increase into the normal range (iron deficient rabbits, dialysate iron 500 μg/dl, day 21) | duration of increase in serum iron and transferrin saturation (peritoneal dialysis for a total of 2 hours) | hypocalcemia / toxic effects [2] | average weekly dose of intravenous iron ([1]; pretreatment period (month 0, baseline), all patients on maintenance intravenous iron, listed as IV-Fe)
1 | Ferric pyrophosphate | significantly higher | 154 ± 120 µg/L | 222.3 ± 43.8 µg/dL | abolishes hematocrit cycling | 28.4 ± 0.9 pg | 8.9 mg | 2 out of the 10 | 154 ± 120 µg/L | maintains hemoglobin without an increase in erythropoietin requirement | approximately 80% | about 80% | 68.7 mg | significantly reduced; also recorded: decline in intravenous iron requirement | significant increase | ≤ 30 min | sustained for the duration of the experiment |  | 
2 | O=P([O-])([O-])OP(=O)([O-])[O-].[Sn+2].[Sn+2] [stannous pyrophosphate] |  |  |  |  |  |  |  |  |  |  |  |  |  |  |  |  | hypocalcemia and immediate toxic effects | 
3 | iron dextran [reference compound] |  | 261 ± 211 µg/L | 192.7 ± 48.1 µg/dL |  | 27.0 ± 1.0 pg | 56.2 mg |  | 261 ± 211 µg/L |  |  |  |  |  |  |  |  |  | 59.6 mg and 68.7 mg
